11 compounds from EPA's ToxValDB 9.5 can be followed below.

One series deals with Rattus norvegicus. Conditions: for LD50: acute; for NOEL: chronic, duration: 2 years, oral.
For series [1] the following is noted: chronic/long-term; development.
A further series deals with Anas platyrhynchos. Conditions: oral.
The test system of a further series is Gallus gallus. The settings on record: oral, diet.
For another series, the system named is Coturnix coturnix. Conditions: chronic; duration: 105 days; oral; diet; mortality.
Another series has as its system Bovidae. Conditions: oral.
For a further series, the system named is Canidae. Conditions: oral, Dog Other.
The test system of the next series is Oncorhynchus mykiss. The settings on record: for LOAEL / NOEC: chronic/long-term; for LOAEL: oral, feed; for LC50: acute, duration: 96 hours, mortality.
A further series deals with Ovis sp. The settings on record: oral.
For another series, the system named is Cyprinodon variegatus. Conditions: acute; duration: 96 hours.
In another series the test system is Bibionidae. Conditions: chronic/long-term, duration: 28 days.
Another series has as its system Daphnia magna. Conditions: chronic/long-term, duration: 21 days.
A further series deals with Lepomis macrochirus. Conditions: acute; duration: 96 hours.
The subject of a further series is Sus scrofa. The settings on record: Not specified.
For the next series, the system named is Capra sp. The settings on record: subchronic.
The next series relates to Tagia sp. The settings on record: chronic/long-term; duration: 56 days.
The test system of the next series is Colinus virginianus. The settings on record: reproduction developmental.
A further series concerns Typhlodromus pyri. As to the kind of experiment: LR50; higher = less toxic. The settings on record: not reported; mortality.
Another series deals with Danio rerio. The settings on record: acute; duration: 96 hours; mortality.
Another series concerns Mus musculus. Conditions: organ weight.
In another series the test system is Pontoscolex corethrurus. Conditions: acute; duration: 7 days; body weight.
The next series has as its system Anatidae. The settings on record: subchronic; duration: 41 days; oral; feed; M/F; no effects.
The next series has as its system Meleagris sp. Conditions: not reported; no effects.
Where [2] appears, read: chronic, duration: 112 days, diet, no effects.

Values after ≈ are worked out from the molar mass of the structure shown.

What is called NOAEL is the highest dose or exposure tested at which no adverse effect was seen. The term LOAEL denotes the lowest tested level that showed an adverse finding.

For the compound `CC(=O)O.CCCCCCCCCCCCN=C(N)N` [Dodecylguanidine acetate], the LD50 came to 851 mg/kg-day with Rattus norvegicus and 857 mg/kg-day in the series on Anas platyrhynchos (acute, unspecified). This compound returned an NOAEL in series [1] of 45 mg/kg-day. In the series on Bird (reproductive), this compound gave an NOEL of 17 mg/kg-day. Further, in the series on Bird (short-term, oral, feed), the LC50 came to 208 mg/kg-day.
As for `ClC1=C(Cl)[C@]2(Cl)[C@@H]3[C@H]4C[C@H]([C@@H]5O[C@H]45)[C@@H]3[C@@]1(Cl)C2(Cl)Cl` [Endrin], the NOAEL in the series on Gallus gallus (subchronic, duration: 50 days, mortality) was 1 mg/kg-day; with Anas platyrhynchos (subchronic, duration: 12 weeks, feed, M/F, mortality), 0.5 mg/kg; in the series on Canidae (chronic, duration: 18 months, diet, organ weight), 1 mg/kg-day. The LOAEL was determined as 0.5 mg/kg-day in the series with Coturnix coturnix and 4.3 µg/kg-day in the series on Oncorhynchus mykiss (duration: 163 days, clinical chemistry). For the same compound, the LEL in the series on Bovidae (setting [2]) and with Ovis sp. (setting [2]) was 5 mg/kg-day each time.
For `CCOP(=O)(NC(C)C)Oc1ccc(SC)c(C)c1` (stereo not drawn) [Fenamiphos], the LD50 with Rattus norvegicus (mortality) is 6 mg/kg-day. Besides, the LC50 in the series on Cyprinodon variegatus is 0.017 µg/mL (≈ 0.056 µM); with Lepomis macrochirus, 0.0093 µg/mL (≈ 0.0307 µM). Further, the NOAEL with Canidae (acute, neurology) amounted to 0.25 mg/kg-day; in the series with Canidae (chronic, duration: 1 years, neurology) it was 0.083 mg/kg-day. Further, the figures for the NOEC in the series with Bibionidae, with Daphnia magna and in the series with Oncorhynchus mykiss (duration: 91 days) were 1.31 µg/L, 0.12 µg/L and 3.8 µg/L, respectively.
As to `Cc1cc2c(C(C)C)c(O)c(O)c(C=O)c2c(O)c1-c1c(C)cc2c(C(C)C)c(O)c(O)c(C=O)c2c1O` [Gossypol], the LEL is 4 mg/kg-day in the series on Oryctolagus sp. (subchronic, duration: 8 weeks, oral, gavage, M, New Zealand, clinical chemistry); 5 mg/kg-day in the series on Canidae (repeat dose other, diet, mortality); at least 15 mg/kg-day in the series with Capra sp. (duration: 90 days, oral, feed, growth). The NOAEL turned out to be 20 mg/kg-day in the series with Gallus gallus (short-term, duration: 20 days, histopathology: nonneoplastic) and 3 mg/kg-day in the series with Sus scrofa (repeat dose other, organ weight). The LOAEL with Oncorhynchus mykiss (duration: 10 months, F, development) worked out at 140 mg/kg; in the series on Ovis sp. (subchronic, duration: 30 days, capsule, gross pathology) it was 3 mg/kg-day.
As to `CC(C)C1(C)N=C(c2nc3ccccc3cc2C(=O)O)NC1=O` (stereo not drawn) [Imazaquin], the NOAEL came out at 250 mg/kg-day in the series on Oryctolagus sp. (reproduction developmental, mortality) and 25 mg/kg-day in the series on Canidae (chronic, duration: 1 years, clinical signs). For the same compound, the NOEC in the series with Bibionidae (other) is 228 mg/kg; with Tagia sp., 0.0275 mg/kg; with Daphnia magna (reproduction), 100000 µg/L; in the series on Oncorhynchus mykiss (duration: 28 days, growth) it was 51200 µg/L; in the series on Colinus virginianus it was 16.6 mg/kg-day. Also, the LR50 in the series with Typhlodromus pyri was above 4 g/ha.
Turning to `O=C1O[C@H]([C@@H](O)CO)C(O)=C1O` [L-Ascorbic acid], the LC50 stood at 32 µg/mL (≈ 182 µM) with Danio rerio and 1020 µg/mL (≈ 5790 µM) in the series on Oncorhynchus mykiss.
Consider `CC(O)(Cn1cncn1)c1ccc(Oc2ccc(Cl)cc2)cc1C(F)(F)F` (stereo not drawn) [Mefentrifluconazole], for which the NOAEL in the series on Oryctolagus sp. (developmental, development) worked out at 15 mg/kg-day; in the series with Mus musculus (chronic, duration: 18 months), 3.5 mg/kg-day; in the series on Mus musculus (subchronic, duration: 90 days) it was 2 mg/kg-day.
As for `CC[C@@H](C(=O)O)[C@@H]1O[C@@H]([C@@H](C)[C@H](O)[C@H](C)C(=O)[C@H](CC)[C@H]2O[C@]3(C=C[C@@H](O)[C@]4(CC[C@@](C)([C@H]5CC[C@](O)(CC)[C@H](C)O5)O4)O3)[C@H](C)C[C@@H]2C)[C@@H](C)C[C@@H]1C` [Narasin], the LEL was at least 35 mg/kg-day in the series with Oryctolagus sp. (acute, Hungarian, clinical signs); 280 mg/kg with Anatidae; 80 mg/kg with Equus caballus (short-term, duration: 1 months, oral, feed, M/F, food consumption). This compound registered an NOEC in the series with Pontoscolex corethrurus of 4.3 mg/kg. The NOEL in the series on Bovidae (short-term, duration: 14 days, gavage, F, clinical signs) came to 0.5 mg/kg-day. In the series with Canidae (chronic, duration: 1 years, capsule, M/F, histopathology: nonneoplastic), this compound came in with a no-observed-adverse-effect level (NOAEL) of 0.5 mg/kg-day. Besides, the LC50 in the series on Oncorhynchus mykiss amounted to 2.23 µg/mL (≈ 2.91 µM).
The compound `O=[N+]([O-])c1ccc([As](=O)(O)O)cc1` [Nitarsone] showed an NOEL with Rattus norvegicus (diet, M/F, Long-Evans, histopathology: nonneoplastic) of 2 mg/kg-day. The LEL is 750 mg/kg in the series with Meleagris sp. and 37.5 mg/kg-day with Canidae (subchronic, duration: 90 days, diet, no effects).
In the series with Rattus norvegicus (drinking water, gross pathology), `O=N[O-]` [Nitrite ion] returned an NOEL of 6.7 mg/kg-day. For the same compound, the NOAEL in the series with Sus scrofa (repeat dose other, oral, diet, hematological) came to 3.3 mg/kg-day; with Bovidae (repeat dose other, hematological), 3.3 mg/kg-day.
As for `Cn1cnc2c1c(=O)[nH]c(=O)n2C` [Theobromine], the NOAEL with Oryctolagus sp. (developmental, development) was determined as 21 mg/kg-day; with Sus scrofa (subchronic, oral, diet, growth), 7 mg/kg-day; in the series on Ovis sp. (subchronic, duration: 3 months, diet, food consumption), 35 mg/kg-day. The LEL amounted to 0.5 mg/kg in the series on Equus caballus (acute, no effects) and 300 mg/kg-day with Capra sp. (duration: 56 days, food consumption).
